This note sets out measurements from ChEMBL document CHEMBL1135235, “Structure-activity relationships of oxime neurokinin antagonists: oxime modifications” (Bioorg Med Chem Lett, 2002).

Data set [1] is described as follows: Area under curve was determined at a dose 30 mpk administered orally. Format: ADME, organism-based. To be noted: rat, in vivo, po, 30 mg/kg.
In data set [2] the target is T1, Substance-K receptor (Cavia porcellus) (UniProt Q64077).
T1 sequence (whole entry): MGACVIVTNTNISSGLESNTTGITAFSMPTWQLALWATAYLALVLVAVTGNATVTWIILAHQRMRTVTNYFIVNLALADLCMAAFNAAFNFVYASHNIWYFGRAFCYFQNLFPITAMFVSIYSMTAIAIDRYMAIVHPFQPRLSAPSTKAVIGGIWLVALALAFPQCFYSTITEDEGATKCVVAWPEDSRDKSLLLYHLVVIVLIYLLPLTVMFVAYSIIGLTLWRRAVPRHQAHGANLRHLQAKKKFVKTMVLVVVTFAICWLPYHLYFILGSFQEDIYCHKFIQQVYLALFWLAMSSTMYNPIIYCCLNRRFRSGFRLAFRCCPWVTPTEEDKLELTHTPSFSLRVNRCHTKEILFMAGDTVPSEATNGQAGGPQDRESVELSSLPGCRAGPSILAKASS
Put plainly: Inhibitory activity against Tachykinin receptor 2 evaluated as beta-ala-NKA (410) induced bronchospasm inhibition after a oral dose of 10 mpk in guinea pig. Format: functional.

Data set [3] addresses T2, Substance-P receptor (Homo sapiens, UniProt P25103). Put plainly: Binding affinity against recombinant human tachykinin receptor 1 in CHO cells using [3H]-Sar SP as a radioligand. Format: cell-based.
Data set [4] concerns the target T3, Substance-K receptor (Homo sapiens, UniProt P21452).
T3 sequence (P21452 whole entry): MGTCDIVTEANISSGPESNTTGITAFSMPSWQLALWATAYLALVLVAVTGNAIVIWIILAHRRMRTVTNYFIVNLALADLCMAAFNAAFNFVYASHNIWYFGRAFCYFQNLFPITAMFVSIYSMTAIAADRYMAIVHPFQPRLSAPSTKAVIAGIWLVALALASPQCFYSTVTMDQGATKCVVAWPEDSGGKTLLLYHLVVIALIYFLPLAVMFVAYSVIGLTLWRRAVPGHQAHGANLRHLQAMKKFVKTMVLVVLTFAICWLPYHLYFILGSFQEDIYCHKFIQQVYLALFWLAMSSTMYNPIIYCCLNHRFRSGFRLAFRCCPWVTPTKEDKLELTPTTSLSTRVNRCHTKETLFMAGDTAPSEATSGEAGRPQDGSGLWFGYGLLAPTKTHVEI
Briefly: (§1) Binding affinity against recombinant human tachykinin receptor 2 in CHO cells using [3H]NKA as a radioligand. Format: cell-based.

Data set [5] addresses T2, Substance-P receptor. Briefly: The compound was evaluated for the binding affinity against recombinant human Tachykinin receptor 1 in CHO cells using [3H]-Sar SP as a radioligand. The format is cell-based. The following applies: concentration not given here.
The target in data set [6] is T4, Substance-K receptor (Homo sapiens) (UniProt P21452).
T4 sequence (whole entry): T3 sequence (P21452 whole entry)
The data set is described as §1. Format: cell-based. Details: concentration or dose not given beside the values. To be noted: concentration not given here.

T2 sequence (P25103 whole entry): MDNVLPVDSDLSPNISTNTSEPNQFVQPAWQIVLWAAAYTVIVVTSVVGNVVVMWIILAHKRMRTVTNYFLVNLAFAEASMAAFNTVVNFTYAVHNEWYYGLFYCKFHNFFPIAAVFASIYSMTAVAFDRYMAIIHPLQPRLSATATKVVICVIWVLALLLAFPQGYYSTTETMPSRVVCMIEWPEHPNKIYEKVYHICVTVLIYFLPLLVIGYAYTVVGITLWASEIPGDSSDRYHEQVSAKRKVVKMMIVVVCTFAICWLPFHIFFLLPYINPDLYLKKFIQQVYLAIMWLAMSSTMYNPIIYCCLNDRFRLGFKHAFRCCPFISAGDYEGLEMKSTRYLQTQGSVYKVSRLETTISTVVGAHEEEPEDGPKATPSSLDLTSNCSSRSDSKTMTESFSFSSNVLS

`CN(C/C(=N\OCC(=N)NO)C(CCN1CCC(N2CCCCC2=O)CC1)c1ccc(Cl)c(Cl)c1)C(=O)c1cc(Cl)cc(Cl)c1` (stereo not drawn): the area under the curve (AUC) in data set [1] worked out at 3 µM·h. For the same molecule, the inhibition in data set [2] was found to be 94%. In addition, the Ki in data set [3] and in data set [4] was 0.7 nM throughout.

On to `CC(C)(C)O/N=C(\COCc1cc(C(F)(F)F)cc(C(F)(F)F)c1)C(CCN1CCC(O)(c2ccccc2)CC1)c1ccc(Cl)c(Cl)c1` (stereo not drawn), for which the values for the inhibition in data set [5] and in data set [6] were 46% and 28%, respectively.

In the case of `OC1(c2ccccc2)CCN(CCC(/C(COCc2cc(C(F)(F)F)cc(C(F)(F)F)c2)=N/Oc2ccccc2)c2ccc(Cl)c(Cl)c2)CC1` (stereo not drawn), the values for the inhibition in data set [5] and in data set [6] were 32% and 23%, respectively.
